For data set [1], the system named is nuo-6(qm200), daf-2(e1370), eat-2(ad1116) mutant C. elegans strains. Kind of data set: Lifespan of long-lived mutant C. elegans strains. It is filed as in vivo, Caenorhabditis elegans. From the text: The nuo-6 gene encodes the C. elegans ortholog of the NDUFB4/B15 subunit of the mitochondrial electron transport chain complex I, also known as the NADH dehydrogenase complex.

In data set [2] the test system is NADH dehydrogenase (Complex I). Kind of data set: NADH dehydrogenase (Complex I) driven coupling assay, isolated liver mitochondria (pyruvate and malate). As to conditions: respiration driven by pyruvate and malate. It is filed as biochemical, mouse. As to the method: Animal studies were performed under approved UCLA animal research protocols. Mitochondria from 3-month-old C57BL/6 mice were isolated. Briefly, livers were extracted, minced at 4° C. in MSHE+BSA (70 mM sucrose, 210 mM mannitol, 5 mM HEPES, 1 mM EGTA, and 0.5% fatty acid free BSA, pH 7.2), and rinsed several times to remove blood. All subsequent steps were performed on ice or at 4° C. The tissue was disrupted in 10 volumes of MSHE+BSA with a glass Dounce homogenizer (5-6 strokes) and the homogenate was centrifuged at 800×g for 10 minutes to remove tissue debris and nuclei. The supernatant was decanted through a cell strainer and centrifuged at 8,000×g for 10 minutes. The dark mitochondrial pellet was resuspended in MSHE+BSA and re-centrifuged at 8,000×g for 10 minutes. The final mitochondrial pellet was resuspended in 30 μl of MAS buffer (70 mM sucrose, 220 mM mannitol, 10 mM KH2PO4, 5 mM MgCl2, 2 mM HEPES, 1 mM EGTA, and 0.2% fatty acid free BSA, pH 7.2). Isolated mitochondrial respiration was measured by running coupling and electron flow assays as described. […]
Mitochondrial respiration was measured by running coupling and electron flow assays. […]

Data set [3] deals with HCV. As to the kind of experiment: Renilla reporter HCV infection of Huh7.5 cells, luciferase activity. As to conditions: 1 mM and 1 μM, 72 hours post treatment. It is filed as cell-based. As to the method:
As subjects age, their susceptibility to infection increases. Therefore, to determine whether α-KB reduces ones susceptibility to age-related infection, Huh7.5 cells were infected with the Renilla reporter HCV for 5 hours and subsequently treated with 1 mM and 1 μM of α-KB. 72 hours post treatment, the cells were lysed and luciferase activity was measured. JG-98, which is a suppressor of viral assembly, was used as a positive control and water was used as a negative control. […] To ensure that the anti-viral activity of α-KB is not the result of cytotoxicity, Huh7.5 cells were treated with 1 mM, 100 μM, 10 μM, 1 μM, and 100 nM α-KB. MTT assays were performed every 24 hours up to 72 hours post treatment. Luteolin, an anti-cancer compound which is cytotoxic, was used as a positive control and water was used as a negative control.

The test system of data set [4] is ETC Complex I diaphorase (NADH: acceptor oxidoreductase). Kind of data set: Complex I Enzyme Activity Microplate Assay (diaphorase). As to conditions: 200 and 800 μM. It is filed as biochemical, bovine. As to the method:
To assess if α-KB can affect the diaphorase (NADH: acceptor oxidoreductase) activity of Complex I, the Complex I Enzyme Activity Microplate Assay Kit (Abcam, ab109721) was used. The assay was performed according to the protocol provided. Bovine Heart Mitochondria lysate (Abcam, ab110338) was added with detergent, followed by incubation on ice for 30 minutes to release Complex I and then centrifuged at 12,000 g, 4° C. for 20 minutes. Supernatant was collected and diluted with the buffer provided and then added to a Complex I antibody-coated 96-well plate. After a 3 hour incubation followed by 2× wash with stabilizer buffer, the wells were added with 200 μL of reaction mix containing 50, 200, or 800 μM α-KB or vehicle control (distilled water). Each condition was performed in triplicates. Kinetic measurements of absorbance at 450 nm with 1 minute intervals were taken, and Complex I diaphorase activity was calculated from the slope of the absorbance to time. The readings were normalized to vehicle mean (as 100 percent).

For data set [5], the system named is Aged mice (22-23 month old C57BL/6J). Kind of data set: Aged mice fed α-KB in drinking water for 7 months. It is filed as in vivo. As to the method: Aged mice (22-23 month old C57BL/6J), including both males and females, were fed either water or α-KB (8 mM in drinking water or 90 mg/kg body weight) for 7 months. […] Mice were examined at least twice a week for signs of ill health, and severely sick or immobilized mice were subject to termination. The lifespan of α-KB treated male group was extended. All the males in untreated control group (5 of 5) died or were terminated due to severe illness before the completion of the 7 months test. Remarkably, most of the males in the α-KB treated group (4 of 5) lived healthily and were still in excellent health at the end of the 7 months study period.

Each structure is given as a SMILES string.

As for `CCC(=O)C(=O)O` [α-KB, α-ketobutyrate], the “lifespan of daf-2(e1370) strain” value in data set [1] (daf-2(e1370)) was “does extend the lifespan”. Also, the “lifespan of eat-2(ad1116) strain” value in data set [1] (eat-2(ad1116)) is listed as “does extend the lifespan”. In addition, in data set [1] (nuo-6(qm200)), the “lifespan of nuo-6(qm200) strain” value is “inability of α-KB to extend the lifespan”. The “ADP-induced and FCCP-induced respiration” value in data set [2] is recorded as “significant decrease”. Besides, the “HCV infection (luciferase activity)” value in data set [3] is given as “inhibits or reduces viral infection”. For the same compound, in data set [4], the “Complex I diaphorase activity” value was “directly inhibits”. The adverse effects entry in data set [5] (8 mM in drinking water or 90 mg/kg body weight, 7 months) is given as “no adverse effects”. Also, in data set [5] (aged female mice), the “gray hair versus untreated group” value is “reduced” and the “lifespan, females, treated versus untreated” value is given as “indistinguishable”. In addition, in data set [5] (aged female mice, 7 months), the “hair density versus untreated control” value is “higher”. In data set [5] (aged male mice), the “effect on gray hair and hair density” value is “minimal”; the “lifespan, male group” value was “extended”; the “males alive and healthy at end of the 7 months study period” value is listed as 4 of 5. Moreover, in data set [5] (aged mice), the cataracts entry is recorded as “no cataracts”. Further, the liver appearance entry in data set [5] (male and female aged mice) is given as “greatly improved liver appearance”.

The values above are taken from US10729668B2, “Ketobutyrate compounds and compositions for treating age-related symptoms and diseases” (The Regents of the University of California, priority 2014, dated 2020).
